This is an account of results in US20140309210A1, “INDAZOLE COMPOUNDS, COMPOSITIONS AND METHODS OF USE THEREOF” (Genentech, Inc., priority 2011, published 2014).

In the assay the target is T1, purified ITK (Invitrogen PV3875) (Homo sapiens, UniProt Q08881).
T1 construct: purchased Invitrogen PV3875
T1 sequence (Q08881 1-620): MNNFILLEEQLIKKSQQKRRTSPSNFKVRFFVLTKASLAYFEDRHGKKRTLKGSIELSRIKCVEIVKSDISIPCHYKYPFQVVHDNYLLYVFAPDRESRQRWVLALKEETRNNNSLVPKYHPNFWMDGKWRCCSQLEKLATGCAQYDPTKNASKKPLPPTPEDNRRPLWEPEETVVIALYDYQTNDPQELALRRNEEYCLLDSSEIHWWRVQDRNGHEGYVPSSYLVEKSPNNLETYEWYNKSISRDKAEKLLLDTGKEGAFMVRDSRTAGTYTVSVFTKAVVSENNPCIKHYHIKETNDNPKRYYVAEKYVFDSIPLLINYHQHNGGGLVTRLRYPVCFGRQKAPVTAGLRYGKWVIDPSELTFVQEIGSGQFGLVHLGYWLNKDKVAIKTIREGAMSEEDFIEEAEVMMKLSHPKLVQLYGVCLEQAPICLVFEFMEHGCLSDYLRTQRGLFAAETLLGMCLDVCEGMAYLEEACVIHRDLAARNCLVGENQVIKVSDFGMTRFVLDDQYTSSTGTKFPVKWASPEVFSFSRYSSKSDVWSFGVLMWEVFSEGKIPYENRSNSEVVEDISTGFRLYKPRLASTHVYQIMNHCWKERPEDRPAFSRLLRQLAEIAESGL
The assay is described as follows: ITK peptide phosphorylation assay (Caliper LabChip or LCMS). In kind it is biochemical. The method, then:
The ability of purified ITK (Invitrogen PV3875) to catalyze peptide phosphorylation is monitored using a Caliper LabChip 3000 microfluidic unit (Caliper assay) or by liquid chromatography-mass spectrometry (LCMS) using a Waters Acquity system (LCMS assay). […] Reactions are quenched by the addition of 2,2′,2″,2′″-(ethane-1,2-diyldinitrilo)tetraacetic acid (50 mM final). Non-phosphorylated substrate and phosphorylated product peptides are separated and quantified using a Caliper LabChip 3000 instrument. […] Reactions are quenched by the addition of trichloroacetic acid (5% v/v final). Non-phosphorylated substrate and phosphorylated product peptides are separated by ultra performance LC and detected by a coupled triple quadrupole MS device applying multiple reaction monitoring (MRM) for quantification. The area of the MRM-extracted mass signal is used to assess the inhibition by test compounds. Equilibrium dissociation constant (Ki) values for ITK inhibitors are calculated from plots of activity vs. inhibitor concentration using Morrison's quadratic equation that accounts for the potential of tight binding, and by also applying the conversion factor that accounts for competitive inhibition and the concentration of ATP used in the assay relative to its apparent Michaelis constant (Km,app).

The mark [1] stands for this setting: Table 2, Examples 1-140, class symbols.

Usually Ki stands for the equilibrium dissociation constant of an inhibitor or competing ligand from its target. The low end stands for higher affinity, the high end for lower affinity. On to `CN(C)CCC(c1cscn1)n1cc(NC(=O)c2n[nH]c3cc(-c4cn[nH]c4)ccc23)cn1` (stereo not shown) [Example 201, N-[1-[3-(dimethylamino)-1-thiazol-4-yl-propyl]pyrazol-4-yl]-6-(1H-pyrazol-4-yl)-1H indazole-3-carboxamide], for which, for the setting “Table 1, Examples 141-279”, the Ki amounted to 2.89 nM. In other words, the single-digit nanomolar range. In turn, `O=C(Nc1cnn(Cc2cccc(CNCC(F)F)c2)c1)c1n[nH]c2ccccc12` [Example 92, N-(1-(3-((2,2-difluoroethylamino)methyl)benzyl)-1H-pyrazol-4-yl)-1H-indazole-3-carboxamide] showed an inhibition constant (Ki) under setting [1] of 1 to 100 nM. Compound `O=C(Nc1cnn(Cc2ccc(CNCC3CC3)cc2)c1)c1n[nH]c2ccccc12` [Example 108, N-(1-(4-((cyclopropylmethylamino)methyl)benzyl)-1H-pyrazol-4-yl)-1H-indazole-3-carboxamide] had a Ki under setting [1] of 1 to 100 nM. In the case of `CN1CCC(Cn2cc(NC(=O)c3n[nH]c4cc(-c5cn[nH]c5)ccc34)cn2)CC1` [Example 258, N-[1-[(1-methyl-4-piperidyl)meth-yl]pyrazol-4-yl]-6-(1H-pyrazol-4-yl)-1H-indazole-3-carboxamide], under “Table 1, Examples 141-279”, the affinity corresponds to a Ki of 5.68 nM. For the compound `Nc1cc(Cn2cc(NC(=O)c3n[nH]c4cc(-c5cn[nH]c5)ccc34)cn2)ccn1` [Example 28, 6-(1H-Pyrazol-4-yl)-1H-indazole-3-carboxylic acid [1-(2-amino-pyridin-4-ylmethyl)-1H-pyrazol-4-yl]-amide], the inhibition constant (Ki) under setting [1] lay within 1 to 100 nM. Consider `CC(CO)c1ccc2[nH]nc(C(=O)Nc3cnn(Cc4cccc(C#N)c4)c3)c2c1` (stereo not shown) [Example 186, N-[1-[(3-cyanophenyl)meth-yl]pyrazol-4-yl]-5-(2-hydroxy-1-methyl-ethyl)-1H-indazole-3-carboxamide], for which the Ki (Table 1, Examples 141-279) was 22 nM. In other words, the double-digit nanomolar range. Compound `CN(CCC#N)Cc1ccc(Cn2cc(NC(=O)c3n[nH]c4ccccc34)cn2)cc1` [Example 111, N-(1-(4-(((2-cyanoethyl)(methyl)amino)methyl)benzyl)-1H-pyrazol-4-yl)-1H-indazole-3-carboxamide] yielded a Ki under setting [1] of 1 to 100 nM.

Where the note is “Table 1, Examples 141-279”, `COc1cncc(-c2ccc3c(C(=O)Nc4cnn(C(CN5CCN(C)CC5)c5cccnc5)c4)n[nH]c3c2)c1` (stereo not shown) [Example 234, 6-(5-methoxy-3-pyridyl)-N-[1-[2-(4-methylpiperazin-1-yl)-1-(3-pyridyl)ethyl]py-razol-4-yl]-1H-indazole-3-carboxamide] came in with an inhibition constant (Ki) of 5.38 nM.

Under setting [1], `C#Cc1cccc(Cn2cc(NC(=O)c3n[nH]c4cc(-c5cn[nH]c5)ccc34)cn2)c1` [Example 25, N-[1-[(3-ethynylphenyl)methyl]pyrazol-4-yl]-6-(1H-pyrazol-4-yl)-1H-indazole-3-carboxamide] had a Ki of 1 to 100 nM. Under setting [1], `N#Cc1cccc(Cn2cc(NC(=O)c3n[nH]c4ccc(-c5cc[nH]n5)cc34)cn2)c1` [Example 80, N-(1-(3-Cyanobenzyl)-1H-pyrazol-4-yl)-5-(1H-pyrazol-3-yl)-1H-indazole-3-carboxamide] had an inhibition constant (Ki) of 1 to 100 nM.

Under setting [1], `O=C(Nc1cnn(Cc2cscn2)c1)c1n[nH]c2cc(-c3cc[nH]n3)ccc12` [Example 43, 6-(1H-Pyrazol-3-yl)-1H-indazole-3-carboxylic acid (1-thiazol-4-ylmethyl-1H-pyrazol-4-yl)-amide] yielded a Ki of 1 to 100 nM.

The compound `COc1cncc(-c2ccc3c(C(=O)Nc4cnn(C(CCN(C)C)c5ccccc5)c4)n[nH]c3c2)c1` (stereo not shown) [Example 213, N-[1-[3-(dimethylamino)-1-phenyl-propyl]pyrazol-4-yl]-6-(5-methoxy-3-pyridyl)-1H-indazole-3-carboxamide] registered a Ki (Table 1, Examples 141-279) of 8.01 nM. In other words, the single-digit nanomolar range. On to `O=C(Nc1cnn(Cc2cccc(-c3ccncc3)c2)c1)c1n[nH]c2cc(-c3cn[nH]c3)ccc12` [Example 37, 6-(1H-Pyrazol-4-yl)-1H-indazole-3-carboxylic acid [1-(3-pyridin-4-yl-benzyl)-1H-pyrazol-4-yl]-amide], for which the Ki under setting [1] is 0.01 to 1 nM. For `O=C(Nc1cnn(Cc2cscn2)c1)c1n[nH]c2cc(-c3cn[nH]c3)ccc12` [Example 26, 6-(1H-Pyrazol-4-yl)-1H-indazole-3-carboxylic acid (1-thiazol-4-ylmethyl-1H-pyrazol-4-yl)-amide], the Ki under setting [1] was 1 to 100 nM. `O=C(Nc1cnn(Cc2cncs2)c1)c1n[nH]c2cc(-c3cn[nH]c3)ccc12` [Example 163, 6-(1H-pyrazol-4-yl)-N-[1-(thiazol-5-ylmethyl)pyrazol-4-yl]-1H-indazole-3-carboxamide]: the Ki (Table 1, Examples 141-279) was 1.16 nM.

For the compound `Cc1n[nH]c(C)c1CCn1cc(NC(=O)c2n[nH]c3cc(-c4cn[nH]c4)ccc23)cn1` [Example 13, 6-(1H-Pyrazol-4-yl)-1H-indazole-3-carboxylic acid {1-[2-(3,5-dimethyl-1H-pyrazol-4-yl)-ethyl]-1H-pyrazol-4-yl}-amide], the Ki under setting [1] was 1 to 100 nM. `O=C(Nc1cnn(Cc2cc(F)ccc2F)c1)c1n[nH]c2ccccc12` [Example 69, N-(1-(2,5-difluorobenzyl)-1H-pyrazol-4-yl)-1H-indazole-3-carboxamide] yielded an inhibitory constant (Ki) under setting [1] of 1 to 100 nM.

For the compound `N#Cc1cccc(Cn2cc(NC(=O)c3n[nH]c4cc(N5CCC(O)C5)ccc34)cn2)c1` (stereo not shown) [Example 88, N-(1-(3-cyanobenzyl)-1H-pyrazol-4-yl)-6-(3-hydroxypyrrolidin-1-yl)-1H-indazole-3-carboxamide], the Ki under setting [1] was 1 to 100 nM. Under “Table 1, Examples 141-279”, `O=C(Nc1cnn(C(CO)c2ccccc2)c1)c1n[nH]c2ccccc12` (stereo not shown) [Example 257, N-[1-(2-hydroxy-1-phenyl-ethyl)pyrazol-4-yl]-1H-indazole-3-carboxamide] returned a Ki of 35.5 nM.

For the compound `O=C(Nc1cnn(CCc2ccccc2)c1)c1n[nH]c2cc(-c3cn[nH]c3)ccc12` [Example 11, 6-(1H-Pyrazol-4-yl)-1H-indazole-3-carboxylic acid (1-phenethyl-1H-pyrazol-4-yl)-amide], the inhibition constant (Ki) under setting [1] was 1 to 100 nM. `O=C(Nc1cnn(Cc2ccccc2)c1)c1n[nH]c2c(F)cccc12` [Example 230, N-(1-benzylpyrazol-4-yl)-7-fluoro-1H-indazole-3-carboxamide] gave an inhibition constant (Ki) (Table 1, Examples 141-279) of 726 nM. This lies in the sub-micromolar range. `O=C(Nc1cnn(Cc2c[nH]cn2)c1)c1n[nH]c2cc(-c3cn[nH]c3)ccc12` [Example 167, N-[1-(1H-imidazol-4-ylmethyl)pyrazol-4-yl]-6-(1H-pyrazol-4-yl)-1H-indazole-3-carboxamide] had a Ki (Table 1, Examples 141-279) of 7.68 nM. This Ki is about 95-fold lower than that of the compound before. The same measure, in the same setting: the figure for `N#Cc1cccc(Cn2cc(NC(=O)c3n[nH]c4ccc(NC5CCNC5)cc34)cn2)c1` (stereo not shown) [Example 183, N-[1-[(3-cyanophenyl)meth-yl]pyrazol-4-yl]-5-(pyrrolidin-3-ylamino)-1H-indazole-3-carboxamide] is 7.52 nM; for `CN1CCC(Nc2ccc3c(C(=O)Nc4cnn(Cc5cccc(C#N)c5)c4)n[nH]c3c2)C1` (stereo not shown) [Example 172, N-[1-[(3-cyanophenyl)meth-yl]pyrazol-4-yl]-6-[(1-methylpyrrolidin-3-yl)amino]-1H-indazole-3-carboxamide] it is 1400 nM.

`O=C(Nc1cnn(Cc2ccccc2)c1)c1n[nH]c2cc(-c3cnccn3)ccc12` [Example 204, N-(1-benzyl-1H-pyrazol-4-yl)-6-(pyrazin-2-yl)-1H-indazole-3-carboxamide] came in with an inhibition constant Ki (Table 1, Examples 141-279) of 37.8 nM. On the same count and under the same terms, the same measure for `O=C(Nc1cnn(CC2CC3CCC2C3)c1)c1n[nH]c2cc(-c3cn[nH]c3)ccc12` (stereo not shown) [Example 251, N-[1-(norbornan-2-ylmethyl)pyrazol-4-yl]-6-(1H-pyrazol-4-yl)-1H-indazole-3-carboxamide]: 5 nM.

As for `O=C(Nc1cnn(CCCCN2CCCC(O)C2)c1)c1n[nH]c2ccccc12` (stereo not shown) [Example 76, N-(1-(4-(3-Hydroxypiperidin-1-yl)butyl)-1H-pyrazol-4-yl)-1H-indazole-3-carboxamide], the Ki under setting [1] is more than 100 nM. Turning to `CCCNCc1ccc(Cn2cc(NC(=O)c3n[nH]c4ccccc34)cn2)cc1` [Example 109, N-(1-(4-((propylamino)methyl)benzyl)-1H-pyrazol-4-yl)-1H-indazole-3-carboxamide], under setting [1], the Ki lay within 1 to 100 nM.

Compound `N#Cc1cccc(Cn2cc(NC(=O)c3n[nH]c4cc(-c5cncnc5)ccc34)cn2)c1` [Example 164, N-[1-[(3-cyanophenyl)meth-yl]pyrazol-4-yl]-6-pyrimidin-5-yl-1H-indazole-3-carboxamide] had an inhibition constant Ki (Table 1, Examples 141-279) of 16.9 nM.

`O=C(Nc1cnn(CC2CCOCC2)c1)c1n[nH]c2cc(-c3cn[nH]c3)ccc12` [Example 242] returned a Ki (Table 1, Examples 141-279) of 2.47 nM. `Cc1cc2c(C(=O)Nc3cnn(Cc4cccc(C#N)c4)c3)n[nH]c2cc1-c1cn[nH]c1` [Example 151, N-[1-[(3-cyanophenyl)meth-yl]pyrazol-4-yl]-5-methyl-6-(1H-pyrazol-4-yl)-1H-indazole-3-carboxamide] yielded a Ki (Table 1, Examples 141-279) of 16.4 nM.
